Assay results: patent EP4205737A1, “COMPOSITION FOR PREVENTION, AMELIORATION, OR TREATMENT OF INFLAMMATORY DISEASES OR IMMUNE DISEASES COMPRISING GANCAONIN N AS ACTIVE INGREDIENT” (UNIVERSITY-INDUSTRY COOPERATION GROUP OF KYUNG HEE …, priority 2020, dated 2022)

Key:
IL-6 = test: Western blotting of IL-6 protein in LPS-stimulated A549 cells; assay type: cell-based, human; conditions: LPS 5 µg/mL, 5 to 40 µM (FIG. 4C)
Procedure: (§1) RAW264.7 cells and A549 cells were dispensed into 6-well plates (1 × 10^6 cells/well) and cultured under conditions of 37°C and 5% CO2. After the culturing, the Raw 264.7 cells were treated with 1 µg/mL of lipopolysaccharide (LPS) and the A549 cells were treated with 5 µg/mL of lipopolysaccharide (LPS) and with 5 µM to 40 µM of gancaonin N, and the cells were cultured for 24 hours or 6 hours. Then, the cells were lysed using a lysis buffer. In addition, the left lung extracted from each mouse was lysed using RIPA buffer. SDS-PAGE electrophoresis was performed on the cell and tissue lysates to separate proteins by side, and 5% bovine serum albumin was used for culturing and for blocking antibodies against PGE2 (1:500), IL-1β (1:500), IL-6 (1:500), TNF-α (1:500), i-NOS (1:500), COX-2 (1:1000), P-ERK1/2 (1:1000), ERK1/2 (1:3000), P-p38 (1:1000), p38 (1:3000), NF-κB p65 (1:1000), Lamin B1 (1:1000), and β-actin (1: 5,000).
(§2) For the pro-inflammatory cytokines whose mRNA expression inhibition was confirmed as above, the expression level of the protein encoded by the mRNA was further checked. To determine the protein expression level, A549 cells were treated with LPS and gancaonin N as described in Examples 1 to 8, and the protein expression levels were checked.

[1] = tested on: LPS-induced acute lung injury (ALI) mouse model; test: Lung wet/dry ratio measurement (pulmonary edema), LPS-induced acute lung injury mouse model; assay type: in vivo, BALB/c mice; conditions: mice, 10 mg/kg or 30 mg/kg intraperitoneally, LPS-induced ALI (FIG. 7)
Procedure: 25 6-week-old female BALB/c mice having a weight of 18g to 20 g were purchased from BioLink (DBL CO., Eumseong, Chungcheongbuk-do, Korea), and reared in the animal laboratory of KyungHee University. To establish an LPS-induced acute lung injury model, all the mice were divided into five groups each group of which consisted of 5 mice, and the five groups were referred to as control, vehicle (only LPS treatment), gancaonin N (10 mg/kg), gancaonin N (30 mg/kg), and dexamethasone (3 mg/kg). Gancaonin N was intraperitoneally injected at a dose of 10 mg/kg or 30 mg/kg, and dexamethasone was intraperitoneally injected at a dose of 3 mg/kg as a positive control group. In addition, the control and vehicle groups were intraperitoneally injected with 4% DMSO in which gancaonin N was dissolved. […]
To determine the severity of pulmonary edema, the wet weight of the right upper lung was measured, the tissue was dried 60°C for 72 hours, and the dry weight was measured. Afterwards, the W/D ratio was calculated.
The mouse models prepared as described in Examples 1 to 3 were treated with LPS to induce acute lung injury (ALI), and then the anti-inflammatory effect of gancaonin N was specifically evaluated for the mice of five groups (control, vehicle (only LPS), gancaonin N (10 mg/kg), gancaonin N (30 mg/kg), and dexamethasone (3 mg/kg)), […]

IL-1β [2] = test: Western blotting of IL-1β protein in LPS-stimulated A549 cells; assay type: cell-based, human; conditions: LPS 5 µg/mL, 5 to 40 µM (FIG. 4B)
Procedure: as §1, §2

iNOS = test: Western blotting of iNOS in LPS-stimulated RAW264.7 cells; assay type: cell-based, murine; conditions: LPS 1 µg/mL, 5 to 40 µM, as treatment concentration increased (FIG. 2C)
Procedure: as §1
To investigate the anti-inflammatory effect of gancaonin N, the inventors treated Raw264.7 cells with LPS and Gancaonin N, as described in Examples 1 to 6, and evaluated the expression level of inflammation-inducing factors. Thus, the inhibitory effect of gancaonin N on inflammation-related factors was specifically confirmed.

IL-1β [3] = test: Real-time PCR of IL-1β mRNA in LPS-stimulated A549 cells; assay type: cell-based, human; conditions: LPS 5 ug/mL, 5 to 40 µM, 24 hours, effect proportional to amount (FIG. 3B)
Procedure: A549 cells were dispensed into 6-well plates (1 × 10^6 cells/well) and cultured under conditions of 37°C and 5% CO2. After the culturing, the A549 cells were treated with of 5 ug/mL of lipopolysaccharide (LPS) and with 5 µM to 40 µM of gancaonin N, and the cells were then cultured for 24 hours. Afterwards, total RNA was isolated from each treated cell using Hybrid-RTM (GeneAll, South Korea). The isolated total RNA (500 ng) was converted to cDNA sequentially through incubation at 55°C for 60 minutes using oligo (dT) and incubation at 85°C for 5 minutes, and the cDNA was stored at 4°C until being used. In addition, real-time quantitative PCR was performed using Universal SYBR Green Master Mix (Applied Biosystems, USA), and the cDNA was amplified under conditions described below. 95°C for 15 minutes, then 95°C for 30 seconds, 59°C for 30 seconds, and 72°C for 30 seconds were repeated 40 times. […]
To investigate the inhibitory effect of gancaonin on the expression levels of pro-inflammatory cytokines, the mRNA expression levels of tumor necrosis factor-α (hereinafter referred to as TNF-α), interleukin-1 beta (hereinafter referred to as IL-1β), and interleukin 6 (hereinafter referred to as IL-6) which are all known as pro-inflammatory cytokines were measured. […]

IL-1β [4] = test: Western blotting of IL-1β in lung of LPS-induced acute lung injury mouse model; assay type: in vivo, BALB/c mice; conditions: mice, 10 mg/kg or 30 mg/kg intraperitoneally, LPS-induced ALI, Western blotting (FIG. 8)
Procedure: 25 6-week-old female BALB/c mice having a weight of 18g to 20 g were purchased from BioLink (DBL CO., Eumseong, Chungcheongbuk-do, Korea), and reared in the animal laboratory of KyungHee University. To establish an LPS-induced acute lung injury model, all the mice were divided into five groups each group of which consisted of 5 mice, and the five groups were referred to as control, vehicle (only LPS treatment), gancaonin N (10 mg/kg), gancaonin N (30 mg/kg), and dexamethasone (3 mg/kg). Gancaonin N was intraperitoneally injected at a dose of 10 mg/kg or 30 mg/kg, and dexamethasone was intraperitoneally injected at a dose of 3 mg/kg as a positive control group. In addition, the control and vehicle groups were intraperitoneally injected with 4% DMSO in which gancaonin N was dissolved. Then, 10 µg/50 µL of LPS was intratracheally administered to the mice except for the control group one hour later (the control group mice were administered 50 µL of PBS), and the mice were sacrificed 12 hours later.
RAW264.7 cells and A549 cells were dispensed into 6-well plates (1 × 10^6 cells/well) and cultured under conditions of 37°C and 5% CO2. […]
To specifically investigate whether gancaonin N can inhibit pro-inflammatory factors in a mouse model, the protein expression levels of COX-2, IL-1β, and TNF-α were measured by Western blotting as described in Examples 1 to 6 above.

Structure (SMILES): COc1ccc(-c2coc3cc(O)c(CC=C(C)C)c(O)c3c2=O)c(O)c1 [gancaonin N, 5,7-dihydroxy-3-(2-hydroxy-4-methoxyphenyl)-6-(3-methylbut-2-enyl)chromen-4-one]
- protein expression of IL-6 (IL-6): significantly inhibited
- W/D ratio [1]: significantly lowered
- protein expression of IL-1β (IL-1β [2]): significantly inhibited
- expression level of protein of iNOS (iNOS): significantly decreased
- mRNA expression of IL-1β (IL-1β [3]): significantly inhibited
- protein expression level of IL-1β in lung (IL-1β [4]): significantly reduced
